Measurements reported in US9302999B2, “Substituted triazoles as herbicides” (E. I. DU PONT DE NEMOURS AND COMPANY, priority 2012, dated 2016).

Assays:
Type in all cases: in vivo
[1] = tested on: panicum, fall (fall panicum Panicum dichotomiflorum); assay: Test F pre-/postemergence: panicum, fall
Excerpt: (§1) Seeds of plant species selected from corn (Zea mays), soybean (Glycine max), velvetleaf (Abutilon theophrasti), lambsquarters (Chenopodium album), poinsettia, wild (wild poinsettia, Euphorbia heterophylla), pigweed, palmer (palmer pigweed, Amaranthus palmeri), waterhemp (common waterhemp, Amaranthus rudis), surinam grass (Brachiaria decumbens), crabgrass, Brazil (Brazilian crabgrass, Digitaria horizontalis), panicum, fall (fall panicum Panicum dichotomiflorum), crabgrass, large (large crabgrass, Digitaria sanguinalis), foxtail, giant (giant foxtail, Setaria faberii), foxtail, green (green foxtail Setaria viridis), goosegrass (Eleusine indica), ragweed (common ragweed, Ambrosia elatior), barnyardgrass (Echinochloa crus-galli), sandbur (southern sandbur, Cenchrus echinatus), arrowleaf sida (Sida rhombifolia), ryegrass, Italian (Italian ryegrass, Lolium multiflorum), dayflower, VA (Virginia (VA) dayflower, Commelina virginica), field bindweed (Convolvulus arvensis), cocklebur (common cocklebur, Xanthium strumarium), morningglory (Ipomoea coccinea), nightshade (eastern black nightshade, Solanum ptycanthum), kochia (Kochia scoparia), nutsedge, yellow (yellow nutsedge, Cyperus esculentus), johnsongrass (Sorghum halepense), smartweed (ladysthumb smartweed, Polygonum persicaria), and beggarticks (hairy beggarticks, Bidens pilosa), were planted into a silt loam soil and treated preemergence with test chemicals formulated in a non-phytotoxic solvent mixture which included a surfactant. At the same time, plants selected from these crop and weed species and also pigweed (Amaranthus retroflexus), waterhemp_RES1 (ALS/Triazine resistant common waterhemp, Amaranthus rudis) and waterhemp_RES2 (ALS/HPPD resistant common waterhemp, Amaranthus rudis) were planted in pots containing a planting medium comprising spaghnum peat moss, vermiculite, wetting agent and starter nutrients treated with postemergence applications of some of the test chemicals formulated in the same manner. Plants ranged in height from 2 to 18 cm for postemergence treatments (1- to 4-leaf stage).
(§2) Treated plants and controls were maintained in a greenhouse for 14 to 21 days, after which time all species were compared to controls and visually evaluated. Plant response ratings, summarized in Table E, are based on a scale of 0 to 100 where 0 is no effect and 100 is complete control. A dash (-) response means no test result.

[2] = tested on: surinam grass (Brachiaria decumbens); assay: Test F pre-/postemergence: surinam grass; conditions: Preemergence
Excerpt: as §1, §2

[3] = tested on: goosegrass (Eleusine indica); assay: Test F pre-/postemergence: goosegrass; conditions: Preemergence
Excerpt: as §1, §2

corn (Zea mays) = assay: Test F pre-/postemergence: corn
Excerpt: as §1, §2

[4] = tested on: beggarticks (hairy beggarticks, Bidens pilosa); assay: Test F pre-/postemergence: beggarticks
Excerpt: as §1, §2

[5] = tested on: pigweed, palmer (palmer pigweed, Amaranthus palmeri); assay: Test F pre-/postemergence: pigweed, palmer; conditions: Postemergence, scale 0 to 100
Excerpt: as §1, §2

kochia (Kochia scoparia) = assay: Test D pre-/postemergence: kochia
How it was run: (§3)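 Visual control ratings (0–100) after 14–21 days, controlled environment. Preemergence on silt loam; postemergence on 2–18 cm plants.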

[6] = tested on: blackgrass (Alopecurus myosuroides); assay: Test D pre-/postemergence: blackgrass
Excerpt: (§4) Seeds of plant species selected from bluegrass (annual bluegrass, Poa annua), blackgrass (Alopecurus myosuroides), canarygrass (Phalaris minor), chickweed (common chickweed, Stellaria media), galium (catchweed bedstraw, Galium aparine), bromegrass, downy (downy bromegrass, Bromus tectorum), field poppy (Papaver rhoeas), field violet (Viola arvensis), foxtail, green (green foxtail, Setaria viridis), deadnettle (henbit deadnettle, Lamium amplexicaule), ryegrass, Italian (Italian ryegrass, Lolium multiflorum), kochia (Kochia scoparia), lambsquarters (Chenopodium album), oilseed rape (Brassica napus), pigweed (Amaranthus retroflexus), Russian thistle (Salsola iberica), chamomile (scentless chamomile, Matricaria inodora), speedwell (bird's-eye speedwell, Veronica persica), barley, spring (spring barley, Hordeum vulgare), wheat, spring (spring wheat, Triticum aestivum), buckwheat, wild (wild buckwheat, Polygonum convolvulus), mustard, wild (wild mustard, Sinapis arvensis), oat, wild (wild oat, Avena fatua), radish, wild (wild radish, Raphanus raphanistrum), windgrass (Apera spica-venti), barley, winter (winter barley, Hordeum vulgare), and wheat, winter (winter wheat, Triticum aestivum) were planted into a silt loam soil and treated preemergence with test chemicals formulated in a non-phytotoxic solvent mixture which included a surfactant. At the same time, these same crop and weed species were planted in pots containing the planting medium comprising spaghnum peat moss, vermiculite, wetting agent and starter nutrients and treated with postemergence applications of the test chemicals formulated in the same manner. Plants ranged in height from 2 to 18 cm (1- to 4-leaf stage).
as §2, with “controlled growth environment” for “greenhouse”, “days” for “days,”, “D,” for “E,”

[7] = tested on: barley, winter (winter barley, Hordeum vulgare); assay: Test D pre-/postemergence: barley, winter
Excerpt: as §4
as §2, with “controlled growth environment” for “greenhouse”, “days” for “days,”, “D,” for “E,”

[8] = tested on: deadnettle (henbit deadnettle, Lamium amplexicaule); assay: Test D pre-/postemergence: deadnettle
How it was run: as §3

[9] = Preemergence, 16 g ai/ha, scale 0 to 100, 0 no effect, 100 complete control
[10] = Preemergence, 31 g ai/ha, scale 0 to 100, 0 no effect, 100 complete control
[11] = Preemergence, 125 g ai/ha, scale 0 to 100
[12] = Preemergence, 250 g ai/ha, scale 0 to 100
[13] = 16 g ai/ha, scale 0 to 100, 0 no effect, 100 complete control
[14] = 31 g ai/ha, scale 0 to 100, 0 no effect, 100 complete control
[15] = Preemergence, 62 g ai/ha, scale 0 to 100
[16] = Postemergence, 8 g ai/ha, scale 0 to 100
[17] = Postemergence, 16 g ai/ha, scale 0 to 100
[18] = Postemergence, 31 g ai/ha, scale 0 to 100
[19] = Postemergence, 62 g ai/ha, scale 0 to 100
[20] = Postemergence, 125 g ai/ha, scale 0 to 100
[21] = Postemergence, 31 g ai/ha, scale 0 to 100 (0 no effect, 100 complete control)
[22] = Postemergence, 62 g ai/ha, scale 0 to 100 (0 no effect, 100 complete control)
[23] = Postemergence, 125 g ai/ha, scale 0 to 100, 0 no effect, 100 complete control

With `COc1nn(-c2cccc(F)c2)nc1Cc1ccnc(C(F)(F)F)c1` [Compound 139] the “Plant response rating, Panicum, Fall” value [1, 9] was 0, the “Plant response rating, Panicum, Fall” value [1, 10] was 25 and the “Plant response rating, Panicum, Fall” value [1, 11] was 100. For the same compound, the “Plant response rating, Panicum, Fall” value [1, 12] was 100, the “Plant response rating, Surinam Grass” value [2, 13] was 0 and the “Plant response rating, Surinam Grass” value [2, 14] was 0. For the same compound, the “Plant response rating, Surinam Grass” value ([2]; 125 g ai/ha, scale 0 to 100) was 75, the “Plant response rating, Surinam Grass” value ([2]; 250 g ai/ha, scale 0 to 100) was 75 and the “Plant response rating, Goosegrass” value [3, 13] was 5. For the same compound, the “Plant response rating, Goosegrass” value [3, 14] was 70, the “Plant response rating, Goosegrass” value ([3]; 62 g ai/ha, scale 0 to 100) was 80 and the “Plant response rating, Goosegrass” value ([3]; 125 g ai/ha, scale 0 to 100) was 98. The “Plant response rating, Goosegrass” value ([3]; 250 g ai/ha, scale 0 to 100) was 100, the “Plant response rating, Corn” value (corn (Zea mays); [9]) was 0 and the “Plant response rating, Corn” value (corn (Zea mays); [10]) was 0. For the same compound, the “Plant response rating, Corn” value (corn (Zea mays); [15]) was 0, the “Plant response rating, Corn” value (corn (Zea mays); [11]) was 0 and the “Plant response rating, Corn” value (corn (Zea mays); [12]) was 5. The “Plant response rating, Beggarticks” value [4, 9] was 0, the “Plant response rating, Beggarticks” value [4, 10] was 0 and the “Plant response rating, Beggarticks” value [4, 15] was 0. For the same compound, the “Plant response rating, Beggarticks” value [4, 11] was 0 and the “Plant response rating, Beggarticks” value [4, 12] was 0.

With `Cc1nn(-c2ccnc(Cl)c2)nc1Cc1ccnc(C(F)(F)F)c1` [Compound 141] the “Plant response rating, Panicum, Fall” value [1, 16] was 30, the “Plant response rating, Panicum, Fall” value [1, 17] was 50 and the “Plant response rating, Panicum, Fall” value [1, 18] was 50. The “Plant response rating, Panicum, Fall” value [1, 19] was 60, the “Plant response rating, Panicum, Fall” value [1, 20] was 75 and the “Plant response rating, Corn” value (corn (Zea mays); [16]) was 15. The “Plant response rating, Corn” value (corn (Zea mays); [17]) was 15, the “Plant response rating, Corn” value (corn (Zea mays); [18]) was 20 and the “Plant response rating, Corn” value (corn (Zea mays); [19]) was 20. For the same compound, the “Plant response rating, Corn” value (corn (Zea mays); [20]) was 30, the “Plant response rating, Pigweed, Palmer” value ([5]; 8 g ai/ha) was 95 and the “Plant response rating, Pigweed, Palmer” value ([5]; 16 g ai/ha) was 95. For the same compound, the “Plant response rating, Pigweed, Palmer” value ([5]; 31 g ai/ha) was 95, the “Plant response rating, Pigweed, Palmer” value ([5]; 62 g ai/ha) was 100 and the “Plant response rating, Pigweed, Palmer” value ([5]; 125 g ai/ha) was 100. For the same compound, the “Plant response rating, Beggarticks” value [4, 16] was 40, the “Plant response rating, Beggarticks” value [4, 17] was 40 and the “Plant response rating, Beggarticks” value [4, 18] was 50. For the same compound, the “Plant response rating, Beggarticks” value [4, 19] was 60 and the “Plant response rating, Beggarticks” value [4, 20] was 75.

In the case of `Cc1nn(-c2ccc(F)c(C(F)(F)F)c2)nc1Cc1ccnc(C(F)(F)F)c1` [Compound 156], the “Plant response rating: Kochia” value (kochia (Kochia scoparia); [21]) is reported as 80, the “Plant response rating: Kochia” value (kochia (Kochia scoparia); [22]) is reported as 95 and the “Plant response rating: Kochia” value (kochia (Kochia scoparia); [23]) is reported as 90. For the same compound, the “Plant response rating, Kochia” value (kochia (Kochia scoparia); [17]) was 75, the “Plant response rating, Kochia” value (kochia (Kochia scoparia); [9]) was 10 and the “Plant response rating, Kochia” value (kochia (Kochia scoparia); [10]) was 30. The “Plant response rating, Kochia” value (kochia (Kochia scoparia); [15]) was 65, the “Plant response rating, Kochia” value (kochia (Kochia scoparia); [11]) was 80 and the “Plant response rating: Blackgrass” value [6, 21] was 15. The “Plant response rating: Blackgrass” value [6, 22] was 35, the “Plant response rating: Blackgrass” value [6, 23] was 60 and the “Plant response rating, Blackgrass” value [6, 17] was 10. The “Plant response rating, Blackgrass” value [6, 9] was 0, the “Plant response rating, Blackgrass” value [6, 10] was 5 and the “Plant response rating, Blackgrass” value [6, 15] was 15. The “Plant response rating, Blackgrass” value [6, 11] was 70, the “Plant response rating: Barley, Winter” value [7, 21] was 20 and the “Plant response rating: Barley, Winter” value [7, 22] was 25. For the same compound, the “Plant response rating: Barley, Winter” value [7, 23] was 30, the “Plant response rating, Barley, Winter” value [7, 17] was 10 and the “Plant response rating, Barley, Winter” value [7, 9] was 5. For the same compound, the “Plant response rating, Barley, Winter” value [7, 10] was 5, the “Plant response rating, Barley, Winter” value [7, 15] was 10 and the “Plant response rating, Barley, Winter” value [7, 11] was 15. The “Plant response rating: Deadnettle” value [8, 21] was 85, the “Plant response rating: Deadnettle” value [8, 22] was 100 and the “Plant response rating: Deadnettle” value [8, 23] was 100. For the same compound, the “Plant response rating, Deadnettle” value [8, 17] was 70, the “Plant response rating, Deadnettle” value [8, 9] was 5 and the “Plant response rating, Deadnettle” value [8, 10] was 15. The “Plant response rating, Deadnettle” value [8, 15] was 100 and the “Plant response rating, Deadnettle” value [8, 11] was 100.
